Data from patent publication US11524966B1 (Valo Early Discovery, Inc., priority 2017, dated 2022).

target: T1, USP28 (His-tagged USP28-FL-mammalian) (Homo sapiens, UniProt Q96RU2); assay: Ubiquitin-Rhodamine 110 Assay for USP28 Activity, Example A-1(a); format: biochemical; details: Ub-Rh110 assay, Example A-1(a); read-out: USP28 A-1(a) IC50 range
T1 construct: Expression of USP28 (1-1077)-TEV-6*His (pTT5 vector); made in house; host or cells: Expi293f cells (pTT5 vector)
T1 sequence (Q96RU2 1-1077): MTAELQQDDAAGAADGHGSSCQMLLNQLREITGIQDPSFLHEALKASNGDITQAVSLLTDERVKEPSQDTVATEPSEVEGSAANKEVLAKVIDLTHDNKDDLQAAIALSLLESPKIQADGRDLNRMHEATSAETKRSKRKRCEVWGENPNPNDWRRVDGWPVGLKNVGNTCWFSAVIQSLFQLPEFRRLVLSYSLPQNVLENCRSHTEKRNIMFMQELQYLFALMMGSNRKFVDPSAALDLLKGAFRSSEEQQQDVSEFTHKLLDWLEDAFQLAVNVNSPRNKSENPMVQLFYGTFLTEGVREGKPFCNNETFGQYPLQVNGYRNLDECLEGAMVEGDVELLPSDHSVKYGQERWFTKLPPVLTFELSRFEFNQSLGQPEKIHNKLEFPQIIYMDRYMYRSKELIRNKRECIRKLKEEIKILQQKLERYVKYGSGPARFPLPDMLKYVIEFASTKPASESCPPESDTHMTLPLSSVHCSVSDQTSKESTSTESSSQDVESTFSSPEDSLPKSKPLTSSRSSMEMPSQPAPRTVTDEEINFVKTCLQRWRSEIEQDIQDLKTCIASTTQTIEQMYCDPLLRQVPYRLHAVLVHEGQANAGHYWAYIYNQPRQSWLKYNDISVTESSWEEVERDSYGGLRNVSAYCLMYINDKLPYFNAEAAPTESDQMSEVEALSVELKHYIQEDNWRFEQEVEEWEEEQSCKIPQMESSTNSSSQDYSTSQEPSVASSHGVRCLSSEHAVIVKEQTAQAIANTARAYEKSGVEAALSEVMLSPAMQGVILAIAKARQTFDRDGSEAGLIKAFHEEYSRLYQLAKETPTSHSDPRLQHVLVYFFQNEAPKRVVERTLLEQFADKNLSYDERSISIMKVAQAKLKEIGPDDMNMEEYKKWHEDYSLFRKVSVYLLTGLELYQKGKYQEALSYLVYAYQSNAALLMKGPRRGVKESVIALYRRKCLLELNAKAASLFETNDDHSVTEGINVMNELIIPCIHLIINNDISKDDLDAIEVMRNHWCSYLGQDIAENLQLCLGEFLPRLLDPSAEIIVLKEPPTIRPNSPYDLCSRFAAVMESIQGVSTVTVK
In short: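 IC50 from 4-parameter logistic fit of percent inhibition versus no-enzyme and DMSO controls; compounds 25 μM to 1.3 nM, 3-fold. Ub-Rh110 cleavage (25 nM, below Km) by […] mammalian-expressed USP28-FL-His ran 45 min at room temperature, stopped with 10 mM citric acid, read ex 485/em 535.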

Compound	IC50
Cc1ccc2c(N)c(C(=O)N[C@H]3COc4cc(N5CCN[C@H](C)C5)ccc4C3)sc2n1 [Example 2-9, 3-amino-6-methyl-N-((R)-7-((R)-3-methylpiperazin-1-yl)chroman-3-yl)thieno[2,3-b]pyridine-2-carboxamide]	1 to 50 nM
Cc1ccc2c(N)c(C(=O)N[C@H]3COc4cc(N5CCNCC56COC6)ccc4C3)sc2n1 [Example 2-10]	1 to 50 nM
Cc1cnc2c(N)c(C(=O)N[C@H]3COc4cc(N5CC6CC(C5)N6)ccc4C3)sc2n1 [Example 2-11, N-((3R)-7-(3,6-diazabicyclo[3.1.1]heptan-3-yl)chroman-3-yl)-7-amino-3-methylthieno[2,3-b]pyrazine-6-carboxamide]	1 to 50 nM
Cc1cnc2c(N)c(C(=O)N[C@H]3COc4cc(N5CC6COCC(C5)N6)ccc4C3)sc2n1 [Example 2-12, N-((3R)-7-(3-oxa-7,9-diazabicyclo[3.3.1]nonan-7-yl)chroman-3-yl)-7-amino-3-methylthieno[2,3-b]pyrazine-6-carboxamide]	50 to 200 nM
Cc1cnc2c(N)c(C(=O)N[C@H]3COc4cc(N5CC6CNCC(C5)O6)ccc4C3)sc2n1 [Example 2-13, N-((3R)-7-(9-oxa-3,7-diazabicyclo[3.3.1]nonan-3-yl)chroman-3-yl)-7-amino-3-methylthieno[2,3-b]pyrazine-6-carboxamide]	1 to 50 nM
Nc1c(C(=O)N[C@H]2COc3cc(N4CC5CC(C4)N5)ccc3C2)sc2nc(F)ccc12 [Example 2-14, N-((3R)-7-(3,6-diazabicyclo[3.1.1]heptan-3-yl)chroman-3-yl)-3-amino-6-fluorothieno[2,3-b]pyridine-2-carboxamide]	1 to 50 nM
Cc1nc2sc(C(=O)N[C@H]3COc4cc(N5CC6CC(C5)N6)ccc4C3)c(N)c2cc1F [Example 2-15, N-((3R)-7-(3,6-diazabicyclo[3.1.1]heptan-3-yl)chroman-3-yl)-3-amino-5-fluoro-6-methylthieno[2,3-b]pyridine-2-carboxamide]	1 to 50 nM
COc1nc2sc(C(=O)N[C@H]3COc4cc(N5CCNCC5)ccc4C3)c(N)c2cc1F [Example 2-16, (R)-3-amino-5-fluoro-6-methoxy-N-(7-(piperazin-1-yl)chroman-3-yl)thieno[2,3-b]pyridine-2-carboxamide]	50 to 200 nM
Cc1cc(C)c2c(N)c(C(=O)N[C@H]3COc4cc(N5CCNCC5)ccc4C3)sc2n1 [Example 2-17, (R)-3-amino-4,6-dimethyl-N-(7-(piperazin-1-yl)chroman-3-yl)thieno[2,3-b]pyridine-2-carboxamide]	1 to 50 nM
Cc1cc(C)c2c(N)c(C(=O)N[C@H]3COc4cc(N5CC6CC(C5)N6)ccc4C3)sc2n1 [Example 2-18, N-((3R)-7-(3,6-diazabicyclo[3.1.1]heptan-3-yl)chroman-3-yl)-3-amino-4,6-dimethylthieno[2,3-b]pyridine-2-carboxamide]	1 to 50 nM
Cc1cc(C)c2c(N)c(C(=O)N[C@H]3COc4cc(N5CC6CNCC(C5)C6(F)F)ccc4C3)sc2n1 [Example 2-19, 3-amino-N-((3R)-7-(9,9-difluoro-3,7-diazabicyclo[3.3.1]nonan-3-yl)chroman-3-yl)-4,6-dimethylthieno[2,3-b]pyridine-2-carboxamide]	1 to 50 nM
Cc1cc(C)c2c(N)c(C(=O)N[C@H]3COc4cc(N5CC6CNCC(C5)O6)ccc4C3)sc2n1 [Example 2-20, N-((3R)-7-(9-oxa-3,7-diazabicyclo[3.3.1]nonan-3-yl)chroman-3-yl)-3-amino-4,6-dimethylthieno[2,3-b]pyridine-2-carboxamide]	1 to 50 nM
Cc1cc(C(F)(F)F)c2c(N)c(C(=O)N[C@H]3COc4cc(N5CC6CC(C5)N6)ccc4C3)sc2n1 [Example 2-21]	1 to 50 nM
Cc1cc(C(F)(F)F)c2c(N)c(C(=O)N[C@H]3COc4cc(N5CC6CNCC(C5)C6(F)F)ccc4C3)sc2n1 [Example 2-22, 3-amino-N-((3R)-7-(9,9-difluoro-3,7-diazabicyclo[3.3.1]nonan-3-yl)chroman-3-yl)-6-methyl-4-(trifluoromethyl)thieno[2,3-b]pyridine-2-carboxamide]	1 to 50 nM
Cc1cc(C(F)(F)F)c2c(N)c(C(=O)N[C@H]3COc4cc(N5CC6CNCC(C5)O6)ccc4C3)sc2n1 [Example 2-23, N-((3R)-7-(9-oxa-3,7-diazabicyclo[3.3.1]nonan-3-yl)chroman-3-yl)-3-amino-6-methyl-4-(trifluoromethyl)thieno[2,3-b]pyridine-2-carboxamide]	1 to 50 nM
O=C(N[C@H]1COc2cc(N3CC4CCC(C3)N4)ccc2C1)c1cnc2c(c1)C1(CCN2)CC1 [Example 2-24, N-((3R)-7-(3,8-diazabicyclo[3.2.1]octan-3-yl)chroman-3-yl)-2′,3′-dihydro-1′H-spiro[cyclopropane-1,4′-[1,8]naphthyridine]-6′-carboxamide]	50 to 200 nM
O=C(N[C@H]1COc2cc(N3CC4CCC(C3)N4)ccc2C1)c1ccc(NCc2ccccc2)nc1 [Example 2-25, N-((3R)-7-(3,8-diazabicyclo[3.2.1]octan-3-yl)chroman-3-yl)-6-(benzylamino)nicotinamide]	50 to 200 nM
Cc1nc2sc(C(=O)N[C@H]3COc4cc(N5CC6CC(C5)N6)ccc4C3)c(N)c2s1 [Example 2-26, N-((3R)-7-(3,6-diazabicyclo[3.1.1]heptan-3-yl)chroman-3-yl)-6-amino-2-methylthieno[2,3-d]thiazole-5-carboxamide]	50 to 200 nM
Cc1nc2sc(C(=O)N[C@H]3COc4cc(N5CC6CCCC(C5)N6)ccc4C3)c(N)c2s1 [Example 2-27]	1 to 50 nM
Cc1nc2sc(C(=O)N[C@H]3COc4cc(N5CC6CNCC(C5)C6(F)F)ccc4C3)c(N)c2s1 [Example 2-28, 6-amino-N-((3R)-7-(9,9-difluoro-3,7-diazabicyclo[3.3.1]nonan-3-yl)chroman-3-yl)-2-methylthieno[2,3-d]thiazole-5-carboxamide]	1 to 50 nM
CCn1ccc2cc(C(=O)N[C@H]3COc4cc(N5CC6CCCC(C5)N6)ccc4C3)nnc21 [Example 2-29, N-((3R)-7-(3,9-diazabicyclo[3.3.1]nonan-3-yl)chroman-3-yl)-7-ethyl-7H-pyrrolo[2,3-c]pyridazine-3-carboxamide]	50 to 200 nM
CCn1ccc2cc(C(=O)N[C@H]3COc4cc(N5CC6CNCC(C5)C6(F)F)ccc4C3)cnc21 [Example 2-30, N-((3R)-7-(9,9-difluoro-3,7-diazabicyclo[3.3.1]nonan-3-yl)chroman-3-yl)-1-ethyl-1H-pyrrolo[2,3-b]pyridine-5-carboxamide]	1 to 50 nM
Cc1cc(C)c2c(N)c(C(=O)N[C@H]3COc4c(C#N)c(N5CCNCC5)cc(F)c4C3)sc2n1 [Example 2-31, (R)-3-amino-N-(8-cyano-5-fluoro-7-(piperazin-1-yl)chroman-3-yl)-4,6-dimethylthieno[2,3-b]pyridine-2-carboxamide]	1 to 50 nM
Cc1cc(C)c2c(N)c(C(=O)N[C@H]3COc4cc(N5CCNCC5)c(C#N)c(F)c4C3)sc2n1 [Example 2-32, (R)-3-amino-N-(6-cyano-5-fluoro-7-(piperazin-1-yl)chroman-3-yl)-4,6-dimethylthieno[2,3-b]pyridine-2-carboxamide]	1 to 50 nM
Cc1ccc2c(N)c(C(=O)N[C@H]3COc4cc(N5CC6CNCC(C5)C6(F)F)c(C#N)cc4C3)sc2n1 [Example 2-33, 3-amino-N-((3R)-6-cyano-7-(9,9-difluoro-3,7-diazabicyclo[3.3.1]nonan-3-yl)chroman-3-yl)-6-methylthieno[2,3-b]pyridine-2-carboxamide]	1 to 50 nM
[2H]C([2H])([2H])O[C@H]1CN(c2ccc3c(c2)OC[C@H](NC(=O)c2sc4nc(C)ccc4c2N)C3)C[C@@H]1N [Example 2-38, 3-amino-N-((R)-7-((3S,4S)-3-amino-4-(methoxy-d3)pyrrolidin-1-yl)chroman-3-yl)-6-methylthieno[2,3-b]pyridine-2-carboxamide]	50 to 200 nM

same assay, conditions: Ubiquitin-Rhodamine 110 assay, Example A-1(a); read-out: USP28 A-1(a) IC50 range

Compound	IC50
Cc1cnc2c(N)c(C(=O)N[C@H]3CCc4nc(N5CCNCC5)ccc4C3)sc2n1 [Example 23-6, 7-amino-3-methyl-N-[(6S)-2-(piperazin-1-yl)-5,6,7,8-tetrahydroquinolin-6-yl]thieno[2,3-b]pyrazine-6-carboxamide]	50 to 200 nM
